Measurements published in publication PMC7321108, “1-Hydroxyanthraquinones Containing Aryl Substituents as Potent and Selective Anticancer Agents” (Molecules, 2020).

Key:
[1] = test system: LNCAP prostate cancer cells; assay: MTT cytotoxicity assay, LNCAP; assay type: cell-based, human; conditions: Homo sapiens, LNCaP, 72 h, 72 h incubation, mean ± SEM of three experiments, read-out: Cytotoxicity (GI50) against LNCAP
Method in brief: (§1)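 Viability is measured by MTT reduction after 72 h of continuous compound treatment in RPMI-1640 containing 10% embryonic calf serum. GI50 reflects the concentration causing 50% cell death compared with compound-free wells.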

SNB-19 cells [2] = assay: DNA synthesis investigation (BrdU/PI flow cytometry), SNB-19; assay type: cell-based, human; conditions: SNB-19, treated at GI50 concentration, 24 h, BrdU 30 min
Method: (§3) Cell cycle analysis was performed by Flow Cytometry using BrdU and PI staining [63]. For this experiment cells were seeded in 6-well plates (30,000 per plate) and incubate for adhesion for 24 h. […] For the next step the BrdU stock was added at a final concentration of 30 µM and cells were incubated for 30 min. Cells were washed with PBS, harvested using trypsine and resuspended at 0.3 mL of PBS. Permeabilization of cell membrane was performed as follows: 0.7 mL of ice-cold 100% EtOH was added into each sample, mixed gently and incubate at 4 °C for 1 h. Cells were pelleted and supernatant was removed completely. Then 0.5 mL of 2 N HCl/0.5% Triton X-100 was added and samples were incubated 30 min at room temperature. Cells were pelleted again, supernatant was removed. The pellet was resuspended in 0.5 mL of 0.1 M sodium tetraborate for 2 min and cells were pelleted again, washed with 150 µL of PBS/1% BSA and resuspended in 50 µM 0.5% Tween 20/1% BSA/PBS. […] After that the samples were resuspended in 0.5 mL of PBS containing 10 mg/mL RNAse A and 20 mg/mL PI. Samples were incubated at room temperature for 30 min and analyzed immediately or store at 4 °C. CytoFLEX flow cytometer (Beckman Coulter) was used for analysis. The results are presented as a percentage of cell population standing in DNA synthesis process.

[3] = test system: MDA-MB-231 breast cancer cells; assay: MTT cytotoxicity assay, MDA-MB-231; assay type: cell-based; conditions: Homo sapiens, 72 h incubation, mean ± SEM of three experiments, read-out: Cytotoxicity (GI50) against MDA-MB-231
Method in brief: as §1

DU-145 cells [4] = assay: DNA synthesis investigation (BrdU/PI flow cytometry), DU-145; assay type: cell-based, human; conditions: DU-145, treated at GI50 concentration, 24 h, BrdU 30 min
Method: as §3

DU-145 cells [5] = assay: Cell cycle analysis by flow cytometry (Hoechst 33342), DU-145; assay type: cell-based, human; conditions: DU-145, treated at GI50 concentration, 24 h
Method: We have carried out flow cytometric study of compounds 13, 16 and the isomeric compound 25 (Table 4, Figure 4G,H). Concentrations of 16 and 25 were taken as 5.4 and 14.5 μM, respectively, as per cytotoxic studies (Table 1). After examining the data for 13 (Figure 4G, Table 4), a good number of cells are arrested in Sub-G1, G0/G1 and S phase. Biosynthetic activity is very high during Sub-G1 phase; this is probably achieved by enhancing of apoptosis. The isomeric molecule 25 arrest G0/G1 and S phases, i.e., affecting the DNA synthesis/replication mechanism. Similarly, for 25 a different pattern is observed, i.e., variations at S and G2/M phases were observed, in comparison to the control. […] Some difference in the mechanism of operation of 13 and 25 has been observed during the progression of cell cycle like: Sub-G1 phase was highly disturbed by 13 and S and G0/G1 phases were highly disturbed by 25.
(§2) For cell cycle analysis cells were seeded in 6-well plates (30,000 per plate) and incubate for adhesion for 24 h. […] Cells were washed with PBS twice, harvested, pelleted and resuspended in 0.5 mL of PBS. For staining the Hoechst 33342 Ready Flow Reagent (Invitrogen) was used according to the instruction. CytoFLEX flow cytometer (Beckman Coulter) was used for analysis. The results are presented as a percentage of cell population standing in different stages of the cell cycle.

[6] = test system: DU-145 prostate cancer cells; assay: MTT cytotoxicity assay, DU-145; assay type: cell-based, human; conditions: Homo sapiens, DU-145, 72 h, 72 h incubation, mean ± SEM of three experiments, read-out: Cytotoxicity (GI50) against DU-145
Method in brief: as §1

SNB-19 cells [7] = assay: Cell cycle analysis by flow cytometry (Hoechst 33342), SNB-19; assay type: cell-based, human; conditions: SNB-19, treated at GI50 concentration, 24 h
Method: Due to the fact that the implementation of the antitumor potential of the currently existing antitumor agents is carried out by acting on various biological targets, at the next stage we performed the cell cycle analysis and DNA synthesis. Cell cycle analysis of 1-hydroxy-4-phenyl-9,10-anthraquinone 13, 1-hydroxy-4-(2,3-dimethoxyphenyl)-9,10- anthraquinone 16, 1-hydroxy-4-(furan-3-yl)-9,10-anthraquinone 23 and 1-hydroxy- 2-(2,3-dimethoxyphenyl)-9,10-anthraquinone 28 against SNB-19 cells for 24 h produced interesting results. After examining the data for compounds 13 and 16 (Table 3, Figure 4C,D), good number of cells are distributed in S phase, i.e., initiated DNA replication mechanism and also in G0/G1 phase, i.e., initial phase of cell cycle. G1 and G2 are the growth phases in cell cycle analysis, whereas S phase is a synthetic phase wherein DNA replication and DNA synthesis take place. The 2-aryl substituted compound 28 initiated the G0/G1 phase in analogy with doxorubicin and mitomycin. […] Further, compounds play a vital role in controlling the regulation of Sub-G1 and G2/M phases. Some difference in the mechanism of operation of 4-aryl substituted 13,16 and 2-aryl substituted 9,10-anthraquinones 28 has been observed during the progression of cell cycle like: S phase was highly disturbed by 13; G0/G1 phase was highly disturbed by 28. […] This observation can be explained by the influence on the cell repair systems that respond to the intercalation of compounds in DNA. […] Further, mitoxantrone promotes the arrest of S phase of cell cycle.
as §2

For `O=C1c2ccccc2C(=O)c2c(-c3ccccc3)ccc(O)c21` [Compound 13, 1-Hydroxy-4-phenylanthracene-9,10-dione], the GI50 [1] was 24 ± 1.47 µM, the “Population (% Cell Distribution) DNA Synthesis” value (SNB-19 cells [2]) was 28.63% and the GI50 [3] was 31.2 ± 1.65 µM. For the same compound, the “Population (% Cell Distribution) DNA Synthesis” value (DU-145 cells [4]) was 6.83%, the “Population (% Cell Distribution) G0/G1” value (DU-145 cells [5]) was 28.7% and the “Population (% Cell Distribution) G2/M” value (DU-145 cells [5]) was 6.3%. The “Population (% Cell Distribution) S” value (DU-145 cells [5]) was 28.7%, the “Population (% Cell Distribution) Sub-G1” value (DU-145 cells [5]) was 34.6% and the “Population (% Cell Distribution) Super-G2” value (DU-145 cells [5]) was 1.6%. For the same compound, the GI50 [6] was 1.1 ± 0.19 µM, the “Population (% Cell Distribution) G0/G1” value (SNB-19 cells [7]) was 29.0% and the “Population (% Cell Distribution) G2/M” value (SNB-19 cells [7]) was 13.9%. The “Population (% Cell Distribution) S” value (SNB-19 cells [7]) was 48.5%, the “Population (% Cell Distribution) Sub-G1” value (SNB-19 cells [7]) was 4.0% and the “Population (% Cell Distribution) Super-G2” value (SNB-19 cells [7]) was 4.6%. The melting point was 207.3 °C (dec.).

With `COc1cccc(-c2ccc(O)c3c2C(=O)c2ccccc2C3=O)c1OC` [Compound 16, 1-(2,3-Dimethoxyphenyl)-4-hydroxyanthracene-9,10-dione] the GI50 [1] was over 100 µM, the “Population (% Cell Distribution) DNA Synthesis” value (SNB-19 cells [2]) was 28.67% and the GI50 [3] was 16.5 ± 0.88 µM. The “Population (% Cell Distribution) DNA Synthesis” value (DU-145 cells [4]) was 27.22%, the “Population (% Cell Distribution) G0/G1” value (DU-145 cells [5]) was 44.3% and the “Population (% Cell Distribution) G2/M” value (DU-145 cells [5]) was 7.3%. For the same compound, the “Population (% Cell Distribution) S” value (DU-145 cells [5]) was 30.7%, the “Population (% Cell Distribution) Sub-G1” value (DU-145 cells [5]) was 15.7% and the “Population (% Cell Distribution) Super-G2” value (DU-145 cells [5]) was 2.0%. For the same compound, the GI50 [6] was 5.4 ± 0.17 µM, the “Population (% Cell Distribution) G0/G1” value (SNB-19 cells [7]) was 36.6% and the “Population (% Cell Distribution) G2/M” value (SNB-19 cells [7]) was 18.6%. The “Population (% Cell Distribution) S” value (SNB-19 cells [7]) was 34.3%, the “Population (% Cell Distribution) Sub-G1” value (SNB-19 cells [7]) was 3.0% and the “Population (% Cell Distribution) Super-G2” value (SNB-19 cells [7]) was 7.6%. The melting point was 213.6 °C (dec.).
